Assay [1] has as its target T1, human TRPV1 (Homo sapiens (Human), UniProt Q8NER1). Briefly: Capsaicin Activation Assay (intracellular Ca2+, FLIPR). In kind it is cell-based. Particulars: recombinant HEK293 cells expressing hTRPV1, 50 nM capsaicin. In short, it runs like this: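 Ca2+ fluorescence was recorded by FLIPR every 1 to 5 seconds in HEK293 cells, clonally selected for stable human TRPV1 expression and plated one day ahead. Test compounds came as serial dilutions of 10 mM DMSO stocks.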

The target of assay [2] is T1, human TRPV1. Briefly: Acid Activation Assay (pH 5.0, intracellular Ca2+, FLIPR). In kind it is cell-based. The following applies: percentage of the maximal pH 5.0-induced response remaining; recombinant HEK293 hTRPV1 cells; maximum concentration tested 37.5 μM. In a few lines: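 Readout: peak [Ca2+]i fluorescence over baseline on FLIPR, expressed as percentage remaining of the maximal pH 5.0-evoked signal. Stable hTRPV1-HEK293 cells with Calcium-4 dye received compound (12 half-log concentrations, maximum 37.5 μM) 3 min before acidic pH 5.0 buffer.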

Each structure is given as a SMILES string.

T1 sequence (Q8NER1 whole entry): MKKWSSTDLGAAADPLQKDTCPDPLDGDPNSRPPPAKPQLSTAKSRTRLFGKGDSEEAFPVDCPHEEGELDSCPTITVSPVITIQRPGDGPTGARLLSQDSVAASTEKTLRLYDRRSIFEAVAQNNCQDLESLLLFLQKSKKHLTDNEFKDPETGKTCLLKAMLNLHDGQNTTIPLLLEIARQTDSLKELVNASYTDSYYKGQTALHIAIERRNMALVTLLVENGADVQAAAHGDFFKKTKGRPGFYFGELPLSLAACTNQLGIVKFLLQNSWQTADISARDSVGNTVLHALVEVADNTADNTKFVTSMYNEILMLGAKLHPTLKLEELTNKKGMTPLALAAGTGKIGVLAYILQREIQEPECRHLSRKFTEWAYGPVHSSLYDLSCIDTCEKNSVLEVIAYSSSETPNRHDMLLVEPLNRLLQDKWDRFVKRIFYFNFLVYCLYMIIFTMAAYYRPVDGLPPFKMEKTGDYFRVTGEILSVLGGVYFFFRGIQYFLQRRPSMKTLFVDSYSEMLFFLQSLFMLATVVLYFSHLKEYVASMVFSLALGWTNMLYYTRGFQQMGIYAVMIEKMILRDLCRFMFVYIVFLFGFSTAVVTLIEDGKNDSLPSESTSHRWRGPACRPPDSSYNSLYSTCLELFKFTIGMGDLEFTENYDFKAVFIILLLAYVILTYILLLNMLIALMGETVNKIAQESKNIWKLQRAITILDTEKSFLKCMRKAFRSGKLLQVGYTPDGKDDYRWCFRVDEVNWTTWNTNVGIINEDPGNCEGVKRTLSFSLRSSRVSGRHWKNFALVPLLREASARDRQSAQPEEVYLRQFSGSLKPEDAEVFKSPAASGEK

In general, IC50 refers to the concentration needed to halve the response being measured. Take `CN1C(=O)CCc2ccc(NC(=O)N[C@H]3CCOc4cc(OC(F)(F)F)ccc43)cc21` [Example 276, 1-(1-methyl-2-oxo-1,2,3,4-tetrahydroquinolin-7-yl)-3-[(4S)-7-(trifluoromethoxy)-3,4-dihydro-2H-chromen-4-yl]urea]: at human TRPV1 [1], the IC50 is 44 nM. For the same molecule, at human TRPV1 [2], the “human TRPV1 H^+ (max % remain)” value turned out to be 77%.

With `CN1C(=O)CCc2ccc(NC(=O)N[C@@H]3CC(C)(C)Oc4cc(Cl)ccc43)cc21` [Example 277, 1-[(4R)-7-chloro-2,2-dimethyl-3,4-dihydro-2H-chromen-4-yl]-3-(1-methyl-2-oxo-1,2,3,4-tetrahydroquinolin-7-yl)urea], the IC50 at human TRPV1 [1] amounted to 4200 nM. At human TRPV1 [2], the “human TRPV1 H^+ (max % remain)” value was found to be 33%.

`CN1C(=O)CCc2ccc(NC(=O)N[C@@H]3CCOc4cc(OC(F)(F)F)ccc43)cc21` [Example 278, 1-(1-methyl-2-oxo-1,2,3,4-tetrahydroquinolin-7-yl)-3-[(4R)-7-(trifluoromethoxy)-3,4-dihydro-2H-chromen-4-yl]urea]: at human TRPV1 [1], the IC50 is 77 nM. Further, the “human TRPV1 H^+ (max % remain)” value at human TRPV1 [2] turned out to be 68%.

`COCC1(COC)C[C@@H](NC(=O)Nc2ccc3c(c2)N(C)C(=O)CC3)c2cc(F)ccc2O1` [Example 279, 1-[(4R)-6-fluoro-2,2-bis(methoxymethyl)-3,4-dihydro-2H-chromen-4-yl]-3-(1-methyl-2-oxo-1,2,3,4-tetrahydroquinolin-7-yl)urea]: at human TRPV1 [1], the IC50 came out at 510 nM. For the same molecule, on human TRPV1 [2], the “human TRPV1 H^+ (max % remain)” value is recorded as 50%.

On to `CN1C(=O)CCc2ccc(NC(=O)N[C@@H]3CC(CF)(CF)Oc4ccccc43)cc21` [Example 280, 1-[(4R)-2,2-bis(fluoromethyl)-3,4-dihydro-2H-chromen-4-yl]-3-(1-methyl-2-oxo-1,2,3,4-tetrahydroquinolin-7-yl)urea], for which the half-maximal inhibitory concentration (IC50) on human TRPV1 [1] was 960 nM. Moreover, the “human TRPV1 H^+ (max % remain)” value at human TRPV1 [2] is 68%.

For the molecule `CN1C(=O)CCc2ccc(NC(=O)N[C@@H]3CC(CF)(CF)Oc4c(F)cccc43)cc21` [Example 281, 1-[(4R)-8-fluoro-2,2-bis(fluoromethyl)-3,4-dihydro-2H-chromen-4-yl]-3-(1-methyl-2-oxo-1,2,3,4-tetrahydroquinolin-7-yl)urea], on human TRPV1 [1], the IC50 worked out at 820 nM. For the same molecule, at human TRPV1 [2], the “human TRPV1 H^+ (max % remain)” value was 86%.

Turning to `CN1C(=O)CCc2ccc(NC(=O)N[C@@H]3CCOc4ccc(F)cc43)cc21` [Example 282, 1-[(4R)-6-fluoro-3,4-dihydro-2H-chromen-4-yl]-3-(1-methyl-2-oxo-1,2,3,4-tetrahydroquinolin-7-yl)urea], the IC50 on human TRPV1 [1] is 410 nM. Also, the “human TRPV1 H^+ (max % remain)” value at human TRPV1 [2] was determined as 81%.

Turning to `CN1C(=O)CCc2ccc(NC(=O)N[C@@H]3CCc4cc(Cl)ccc43)cc21` [Example 283, 1-[(1R)-5-chloro-2,3-dihydro-1H-inden-1-yl]-3-(1-methyl-2-oxo-1,2,3,4-tetrahydroquinolin-7-yl)urea], the IC50 on human TRPV1 [1] came out at 4800 nM. For the same molecule, the “human TRPV1 H^+ (max % remain)” value on human TRPV1 [2] was 84%.

In the case of `CN1C(=O)CCc2ccc(NC(=O)N[C@@H]3CCc4cc(F)ccc43)cc21` [Example 285, 1-[(1R)-5-fluoro-2,3-dihydro-1H-inden-1-yl]-3-(1-methyl-2-oxo-1,2,3,4-tetrahydroquinolin-7-yl)urea], the IC50 on human TRPV1 [1] worked out at 55 nM. The “human TRPV1 H^+ (max % remain)” value at human TRPV1 [2] is 27%.

Take `CN1C(=O)CCc2ccc(NC(=O)N[C@H]3CC4(CCC4)Oc4ccc(F)cc43)cc21` [Example 286, 1-[(4S)-6-fluoro-3,4-dihydrospiro[chromene-2,1′-cyclobutan]-4-yl]-3-(1-methyl-2-oxo-1,2,3,4-tetrahydroquinolin-7-yl)urea]: the half-inhibitory concentration (IC50) on human TRPV1 [1] came to 260 nM. The “human TRPV1 H^+ (max % remain)” value on human TRPV1 [2] is 68%.

`CN1C(=O)CCc2ccc(NC(=O)N[C@H]3CC(C)(C)Oc4ccc(F)cc43)cc21` [Example 287, 1-[(4S)-6-fluoro-2,2-dimethyl-3,4-dihydro-2H-chromen-4-yl]-3-(1-methyl-2-oxo-1,2,3,4-tetrahydroquinolin-7-yl)urea]: the half-maximal inhibitory concentration (IC50) on human TRPV1 [1] was 13000 nM. Further, the “human TRPV1 H^+ (max % remain)” value on human TRPV1 [2] was determined as 92%.

Turning to `CN1C(=O)CCc2ccc(NC(=O)N[C@@H]3CC4(CCCC4)Oc4ccccc43)cc21` [Example 288, 1-[(4R)-3,4-dihydrospiro[chromene-2,1′-cyclopentan]-4-yl]-3-(1-methyl-2-oxo-1,2,3,4-tetrahydroquinolin-7-yl)urea], the IC50 at human TRPV1 [1] worked out at 10000 nM. Further, the “human TRPV1 H^+ (max % remain)” value at human TRPV1 [2] is 75%.

Consider `CN1C(=O)CCc2ccc(NC(=O)N[C@@H]3C[C@@](C)(CF)Oc4cc(C(F)(F)F)ccc43)cc21` [Example 289, 1-[(2S,4R)-2-(fluoromethyl)-2-methyl-7-(trifluoromethyl)-3,4-dihydro-2H-chromen-4-yl]-3-(1-methyl-2-oxo-1,2,3,4-tetrahydroquinolin-7-yl)urea], for which the IC50 at human TRPV1 [1] came out at 230 nM. The “human TRPV1 H^+ (max % remain)” value on human TRPV1 [2] was determined as 68%.

Consider `CN1C(=O)CCc2ccc(NC(=O)N[C@@H]3C[C@](C)(CF)Oc4cc(C(F)(F)F)ccc43)cc21` [Example 290, 1-[(2R,4R)-2-(fluoromethyl)-2-methyl-7-(trifluoromethyl)-3,4-dihydro-2H-chromen-4-yl]-3-(1-methyl-2-oxo-1,2,3,4-tetrahydroquinolin-7-yl)urea], for which, on human TRPV1 [1], the IC50 is 15 nM. For the same molecule, at human TRPV1 [2], the “human TRPV1 H^+ (max % remain)” value is listed as 68%.

`CN1C(=O)CCc2ccc(NC(=O)N[C@@H]3C[C@@](C)(CF)Oc4cc(Cl)ccc43)cc21` [Example 291, 1-[(2S,4R)-7-chloro-2-(fluoromethyl)-2-methyl-3,4-dihydro-2H-chromen-4-yl]-3-(1-methyl-2-oxo-1,2,3,4-tetrahydroquinolin-7-yl)urea]: the IC50 at human TRPV1 [1] was 26 nM. In addition, the “human TRPV1 H^+ (max % remain)” value on human TRPV1 [2] is recorded as 71%.

Regarding `CN1C(=O)CCc2ccc(NC(=O)N[C@@H]3C[C@@](C)(C(F)F)Oc4ccccc43)cc21` [Example 292, 1-[(2S,4R)-2-(difluoromethyl)-2-methyl-3,4-dihydro-2H-chromen-4-yl]-3-(1-methyl-2-oxo-1,2,3,4-tetrahydroquinolin-7-yl)urea], the IC50 on human TRPV1 [1] was found to be 26 nM. Further, the “human TRPV1 H^+ (max % remain)” value at human TRPV1 [2] was 68%.

Consider `CN1C(=O)CCc2ccc(NC(=O)N[C@@H]3C[C@](C)(C(F)F)Oc4ccccc43)cc21` [Example 293, 1-[(2R,4R)-2-(difluoromethyl)-2-methyl-3,4-dihydro-2H-chromen-4-yl]-3-(1-methyl-2-oxo-1,2,3,4-tetrahydroquinolin-7-yl)urea], for which, on human TRPV1 [1], the IC50 was found to be 270 nM. At human TRPV1 [2], the “human TRPV1 H^+ (max % remain)” value was determined as 72%.

`CN1C(=O)CCc2ccc(NC(=O)N[C@@H]3CC(C)(C)Oc4c3ccc(Cl)c4F)cc21` [Example 294, 1-[(4R)-7-chloro-8-fluoro-2,2-dimethyl-3,4-dihydro-2H-chromen-4-yl]-3-(1-methyl-2-oxo-1,2,3,4-tetrahydroquinolin-7-yl)urea]: at human TRPV1 [1], the IC50 came out at 120 nM. On human TRPV1 [2], the “human TRPV1 H^+ (max % remain)” value was found to be 71%.

Turning to `CN1C(=O)CCc2ccc(NC(=O)N[C@@H]3CC(C)(C)Oc4nc(C(F)(F)F)ccc43)cc21` [Example 295, 1-[(4R)-2,2-dimethyl-7-(trifluoromethyl)-3,4-dihydro-2H-pyrano[2,3-b]pyridin-4-yl]-3-(1-methyl-2-oxo-1,2,3,4-tetrahydroquinolin-7-yl)urea], the IC50 at human TRPV1 [1] turned out to be 99 nM. Further, the “human TRPV1 H^+ (max % remain)” value on human TRPV1 [2] was 67%.

On to `CN1C(=O)CCc2ccc(NC(=O)N[C@@H]3CC(CF)(CF)Oc4cc(F)ccc43)cc21` [Example 296, 1-[(4R)-7-fluoro-2,2-bis(fluoromethyl)-3,4-dihydro-2H-chromen-4-yl]-3-(1-methyl-2-oxo-1,2,3,4-tetrahydroquinolin-7-yl)urea], for which, on human TRPV1 [1], the IC50 was 130 nM. Also, at human TRPV1 [2], the “human TRPV1 H^+ (max % remain)” value turned out to be 68%.

`CN1C(=O)CCc2ccc(NC(=O)N[C@@H]3CC(C)(C)Oc4cc(Br)ccc43)cc21` [Example 297, 1-[(4R)-7-bromo-2,2-dimethyl-3,4-dihydro-2H-chromen-4-yl]-3-(1-methyl-2-oxo-1,2,3,4-tetrahydroquinolin-7-yl)urea]: the IC50 at human TRPV1 [1] was 130 nM. Further, the “human TRPV1 H^+ (max % remain)” value on human TRPV1 [2] is given as 67%.

In the case of `CN1C(=O)CCc2ccc(NC(=O)N[C@@H]3C[C@@](C)(C(F)(F)F)Oc4ccccc43)cc21` [Example 298, 1-(1-methyl-2-oxo-1,2,3,4-tetrahydroquinolin-7-yl)-3-[(2S,4R)-2-methyl-2-(trifluoromethyl)-3,4-dihydro-2H-chromen-4-yl]urea], the IC50 at human TRPV1 [1] is 67 nM. The “human TRPV1 H^+ (max % remain)” value on human TRPV1 [2] is given as 69%.

For `CN1C(=O)CCc2ccc(NC(=O)N[C@@H]3CC(C)(C)Oc4c3ccc(F)c4F)cc21` [Example 299, 1-[(4R)-7,8-difluoro-2,2-dimethyl-3,4-dihydro-2H-chromen-4-yl]-3-(1-methyl-2-oxo-1,2,3,4-tetrahydroquinolin-7-yl)urea], on human TRPV1 [1], the IC50 stood at 54 nM. The “human TRPV1 H^+ (max % remain)” value at human TRPV1 [2] came out at 84%.

In the case of `O=C(Nc1ccc2c(c1)NC(=O)C(N1CCOCC1)C2)N[C@@H]1CC(CF)(CF)Oc2cc(Cl)ccc21` (stereo partly drawn) [Example 300, 1-[(4R)-7-chloro-2,2-bis(fluoromethyl)-3,4-dihydro-2H-chromen-4-yl]-3-[3-(morpholin-4-yl)-2-oxo-1,2,3,4-tetrahydroquinolin-7-yl]urea], the IC50 at human TRPV1 [1] stood at 62 nM. Further, the “human TRPV1 H^+ (max % remain)” value at human TRPV1 [2] turned out to be 75%.

Take `CC1(C)C[C@@H](NC(=O)Nc2ccc3c(c2)NC(=O)C(N2CCOCC2)C3)c2ccc(F)cc2O1` (stereo partly drawn) [Example 301, 1-[(4R)-7-fluoro-2,2-dimethyl-3,4-dihydro-2H-chromen-4-yl]-3-[3-(morpholin-4-yl)-2-oxo-1,2,3,4-tetrahydroquinolin-7-yl]urea]: on human TRPV1 [1], the IC50 amounted to 1300 nM. Besides, at human TRPV1 [2], the “human TRPV1 H^+ (max % remain)” value was determined as 60%.

The record behind these values is patent publication US8969325B2, “TRPV1 antagonists” (AbbVie Inc., priority 2011, dated 2015).
